Measurements: patent US6486199B1, “Spiro and dispiro 1,2,4-trioxolane antimalarials” (Medicines for Malaria Venture MMV International Centre …, priority 2001, dated 2002)
Converted amounts (≈) assume the structure as drawn. Read-outs that look alike come from different tables or passages of the source. Marks after values point to notes of the source that are not given here.

Tests used:
P. berghei [1] = assay: 1-day Peters test against P. berghei in vivo; details: for ED50 / ED90: Plasmodium berghei, 24 h; for ED90: read-out: P. berghei (1 day) ED90 po
[2] = system: chloroquine-sensitive NF54 strain of P. falciparum; assay: in vitro screen against chloroquine-sensitive NF54 strain of P. falciparum; format: cell-based; details: for IC50: Plasmodium falciparum, NF54, read-out: IC50 (ng/ml) NF54; for IC50 (ng/ml) NF54: in vitro, NF54 strain
[3] = system: chloroquine-resistant K1 strain of P. falciparum; assay: in vitro screen against chloroquine-resistant K1 strain of P. falciparum; format: cell-based; details: for IC50: Plasmodium falciparum, K1, read-out: IC50 (ng/ml) K1; for IC50 (ng/ml) K1 / in vitro potency, fold less potent than the analog: in vitro; for IC50 (ng/ml) K1: K1 strain
[4] = system: ANKA strain of P. Berghei; assay: single dose STI in vivo screen in infected Moro SPF mice; details: for inhibition in vivo at 10 mg/kg: Plasmodium berghei, 72 h; for Survival (days) po / Activity (%) po: single 10 mg/kg po; for Survival (days) sc / Activity (%) sc: single 10 mg/kg sc; for in vivo activity: 10 mg/kg po/sc data of Table 2; for Activity (%) po / Activity (%) sc: percent reduction in parasitemia day 3 post-infection
parasitemia = assay: onset of drug action and recrudescence after single oral dose; format: in vivo; details: for Recrudescence (>5% parasitemia) occurs on day: single 100 mg/kg po on day +3 post-infection
Method: The reduction of parasitemia was monitored 12 h after treatment, and the time of recrudescence was assessed by daily blood smears for 14 days, followed by intermittent assessment for up to 30 days.

P. berghei [5] = assay: 4-day Peters test against P. berghei in vivo; details: for ED50: Plasmodium berghei, 96 h
[6] = differential scanning calorimetry (DSC), thermal stability; format: physicochemical; details: thermal decomposition
[7] = system: 21-day-old schistosomules of Schistosoma mansoni; assay: effect on 21-day-old schistosomules in mice; format: in vivo; details: single 200 mg/kg per os; for FWR (%): female worm reduction rate; for Mean female worm burden: mean ± standard deviation; for TWR (%): total worm reduction rate
Method: […] Each group was treated per os with OZ compounds at a single dose of 200 mg/kg. Untreated mice served as the control. All groups were killed 4 weeks after treatment and the liver and intestine were removed and separated. The liver and intestine were compressed and alive male and female worms could be seen and counted. The effect of the compounds was evaluated by mean total and female worm burden.

[8] = system: adult schistosomes (49-day-old) of Schistosoma mansoni; assay: effect on adult schistosomes (49-day-old) in mice; format: in vivo; details: dose used was 200 mg/kg
[9] = system: adult schistosomes (49-day-old) of Schistosoma mansoni; assay: effect on adult schistosomes (49-day-old) in mice; format: in vivo; details: single 400 mg/kg per os; for TWR (%): total worm reduction rate; for Mean total worm burden: x ± SD
Method: Mice were infected with 100 Schistosoma mansoni cercariae […]. Each group was treated per os with OZ compounds at a single dose of 400 mg/kg. Untreated mice served as the control. All groups were killed 4 weeks after treatment and the liver and intestine were removed and separated. The liver and intestine were compressed and alive male and female worms could be seen and counted.

[10] = po, read-out: P. berghei (1 day) ED50 po
[11] = sc, read-out: P. berghei (1 day) ED50 sc

Compound	P. berghei (1 day) ED90 sc (P. berghei [1]; sc)	IC50 [2]	IC50 [3]	Tm dec. (° C.) [6]	FWR (%) [7]	Mean female worm burden [7]	TWR (%) [7]	Percentage of dead worm [9]	Total dead worm [9]	TWR (%) [9]	Mean total worm burden [9]	further results
C[C@H]1[C@H](OC(=O)CCC(=O)O)O[C@@H]2O[C@@]3(C)CC[C@H]4[C@H](C)CC[C@@H]1[C@@]24OO3 [Artesunate, artesunate, reference compound]	16 mg/kg	1.2 ng/mL (≈ 0.00312 µM)	1.2 ng/mL (≈ 0.00312 µM)									ED50 (P. berghei [1]; [10]): 5 mg/kg; ED90 (P. berghei [1]; po): 13 mg/kg; ED50 (P. berghei [1]; [11]): 0.86 mg/kg; inhibition in vivo at 10 mg/kg ([4]; po, read-out: Activity (%) po): 83.3%; inhibition in vivo at 10 mg/kg ([4]; sc, read-out: Activity (%) sc): 81.1%; Survival (days) po [4]: 7.1 days; Survival (days) sc [4]: 8.0 days; Recrudescence (>5% parasitemia) occurs on day (parasitemia): 2 days; onset of action: decline in parasitemia (parasitemia; single 100 mg/kg po, monitored 12 h after treatment): rapid decline in parasitemia
C1COC2(CCC3(CC2)OOC2(O3)C3CC4CC(C3)CC2C4)O1 (centres unmarked) [OZ10, Adamantane-2-spiro-3′-1′,2′,4′,9′,12′-pentaoxadispiro[4.2.4.2]tetradecane]	2.2 mg/kg	0.67 ng/mL (≈ 0.00208 µM)	0.4 ng/mL (≈ 0.00124 µM)	159.4 °C								ED50 (P. berghei [1]; [10]): 2.3 mg/kg; ED90 (P. berghei [1]; po): 6.3 mg/kg; ED50 (P. berghei [1]; [11]): 0.06 mg/kg; inhibition in vivo at 10 mg/kg ([4]; po, read-out: Activity (%) po): 99.6%; inhibition in vivo at 10 mg/kg ([4]; sc, read-out: Activity (%) sc): 100%; P. berghei (4 day) ED90 po (P. berghei [5]; po): 3.0 mg/kg; P. berghei (4 day) ED90 sc (P. berghei [5]; sc): 0.9 mg/kg; ED50 (P. berghei [5]; po, read-out: P. berghei (4 day) ED50 po): 1.3 mg/kg; ED50 (P. berghei [5]; sc, read-out: P. berghei (4 day) ED50 sc): 0.5 mg/kg
O=C1C2C3CC4C5C3C1C5C1(OOC3(O1)C1CC5CC(C1)CC3C5)C42 (centres unmarked) [OZ14, Adamantane-2-spiro-3′-1′,2′,4′-trioxolane-5′-spiro-8″-11″-oxopentacyclo[5.4.0.0^2″,6″.0^3″,10″.0^5″,9″]undecane]				113.3 °C	0%	12.4 ± 4.2	7%					Percentage of dead worm [8]: 0; Total dead worm [8]: 0; TWR (%) ([8]; total worm reduction rate): 0%; Mean total worm burden ([8]; x ± SD): 44.5 ± 13.2
O=C1CCC2(CCO1)OOC1(O2)C2CC3CC(C2)CC1C3 (centres unmarked) [OZ17, Adamantane-2-spiro-3′-9′-oxo-1′,2′,4′,8′-tetraoxaspiro[4.6]undecane]				158.4 °C	7%	11.6 ± 3.3^a	23%	5.2 (10/191)	10	0%	36.2 ± 13.8	IC50 (ng/ml) NF54 [2]: > 100 ng/mL; IC50 (ng/ml) K1 [3]: 85 ng/mL (≈ 0.289 µM)
C1CCCCCC2(CCCCC1)OOC1(O2)C2CC3CC(C2)CC1C3 (centres unmarked) [OZ20, Adamantane-2-spiro-3′-1′,2′,4′-trioxaspiro[4.11]hexadecane]	10 mg/kg	20 ng/mL (≈ 0.0574 µM)	15 ng/mL (≈ 0.043 µM)	170.5 °C	0%	13.8 ± 5.5	0%	0	0	0%	38.6 ± 3.6	ED50 (P. berghei [1]; [10]): 4.3 mg/kg; ED90 (P. berghei [1]; po): 9.7 mg/kg; ED50 (P. berghei [1]; [11]): 7.1 mg/kg; in vitro potency, fold less potent than the analog [3]: order of magnitude
O=C1CCC2(CC1)OOC1(CCCCCCCCCCC1)O2 [OZ21, 3-Oxo-7,20,21-trioxadispiro[5.1.11.2]heneicosane]		25 ng/mL (≈ 0.0805 µM)	14 ng/mL (≈ 0.0451 µM)	190.7 °C	0%	15.0 ± 9.7	0%	0	0	0%	36.2 ± 9.0	in vitro potency, fold less potent than the analog [3]: 70 fold; in vivo activity [4]: all in vivo activity was lost; Activity (%) po [4]: 0/0%; Activity (%) sc [4]: 0/0%
C1CC2(CCO1)OOC1(O2)C2CC3CC(C2)CC1C3 (centres unmarked) [OZ22, Adamantane-2-spiro-3′-1′,2′,4′,8′-tetraoxaspiro[4.5]decane]		0.56 ng/mL (≈ 0.0021 µM)	0.32 ng/mL (≈ 0.0012 µM)		76%	3.0 ± 1.9^b	75%					inhibition in vivo at 10 mg/kg ([4]; po, read-out: Activity (%) po): 35%; inhibition in vivo at 10 mg/kg ([4]; sc, read-out: Activity (%) sc): 99.6%
c1ccc(C2CCC3(CC2)OOC2(O3)C3CC4CC(C3)CC2C4)cc1 (centres unmarked) [OZ27, Adamantane-2-spiro-3′-8′-phenyl-1′,2′,4′-trioxaspiro[4.5]decane]	3.1 mg/kg			161.7 °C	58%	5.2 ± 1.6^b	63%	9.6 (15/157)	15	19.6%	28.4 ± 9.5^a	P. berghei (1 day) ED50 po (P. berghei [1]; po): 1.9 mg/kg; P. berghei (1 day) ED90 po (P. berghei [1]; po): 3.2 mg/kg; P. berghei (1 day) ED50 sc (P. berghei [1]; sc): 1.8 mg/kg; oral activity based on po ED50/ED90 values (P. berghei [1]; po, ranking among trioxolanes and controls): only slightly less orally active than OZ11; IC50 (ng/ml) NF54 [2]: 4.8 ng/mL (≈ 0.0141 µM); IC50 (ng/ml) K1 [3]: 2.2 ng/mL (≈ 0.00646 µM); antimalarial activity, overall assessment ([4]; overall judgement of in vitro and in vivo data of Table 2): excellent activity; P. berghei (4 day) ED50 po (P. berghei [5]; po): 1.3 mg/kg; P. berghei (4 day) ED90 po (P. berghei [5]; po): 2.6 mg/kg; P. berghei (4 day) ED50 sc (P. berghei [5]; sc): 0.2 mg/kg; P. berghei (4 day) ED90 sc (P. berghei [5]; sc): 0.9 mg/kg; duration of action compared with artemether (parasitemia; single 100 mg/kg po): longer; Recrudescence (>5% parasitemia) occurs on day (parasitemia): 11 days
O=[N+]([O-])c1ccc(NN=C2CCC3(CC2)OOC2(O3)C3CC4CC(C3)CC2C4)c([N+](=O)[O-])c1 (centres unmarked) [OZ29, Adamantane-2-spiro-3′-1′,2′,4′-trioxaspiro[4.5] decan-8′-one 2,4-dinitrophenylhydrazone]		13 ng/mL (≈ 0.0284 µM)	9.7 ng/mL (≈ 0.0212 µM)	155.7 °C	20%	10.0 ± 3.7^a	28%	0	0	13.4%	31.0 ± 13.7^a	Activity (%) po [4]: 0/0%; Activity (%) sc [4]: 0/0%; Survival (days) po [4]: 5.0/5.0 days; Survival (days) sc [4]: 5.0/5.0 days
OC1CCC2(CC1)OOC1(O2)C2CC3CC(C2)CC1C3 (centres unmarked) [OZ32, Adamantane-2-spiro-3′-8′-hydroxy-1′,2′,4′-trioxaspiro[4.5]decane]	2.1 mg/kg			147.9 °C	70%	3.8 ± 1.9^b	73%	27.6 (50/181)	50	26.8%	26.2 ± 5.9^b	P. berghei (1 day) ED50 po (P. berghei [1]; po): 1.9 mg/kg; P. berghei (1 day) ED90 po (P. berghei [1]; po): 13 mg/kg; P. berghei (1 day) ED50 sc (P. berghei [1]; sc): > 1 mg/kg; IC50 (ng/ml) NF54 [2]: 0.51 ng/mL (≈ 0.00182 µM); IC50 (ng/ml) K1 [3]: 0.25 ng/mL (≈ 0.000892 µM); P. berghei (4 day) ED50 po (P. berghei [5]; po): 2.6 mg/kg; P. berghei (4 day) ED90 po (P. berghei [5]; po): 5.1 mg/kg; P. berghei (4 day) ED50 sc (P. berghei [5]; sc): 0.6 mg/kg; P. berghei (4 day) ED90 sc (P. berghei [5]; sc): 1.3 mg/kg
CC1(C)COC2(CCC3(CC2)OOC2(CC(C)(C)CC(C)(C)C2)O3)OC1 [OZ36, 2,2,4,4,14,14-Hexamethyl-7,12,16,19,20-pentaoxatrispiro[5.1.2.5.2.2]icosane]		62 ng/mL (≈ 0.168 µM)	24 ng/mL (≈ 0.0651 µM)	201.7 °C	12%	11.0 ± 4.0^a	16%	0	0	0%	40.2 ± 12.2	in vitro potency, fold less potent than the analog [3]: ~20 fold; in vivo activity [4]: all in vivo activity was lost; Activity (%) po [4]: 0/0%; Activity (%) sc [4]: 0/0%; Survival (days) po [4]: 5.7/5.7 days; Survival (days) sc [4]: 5.7/5.7 days
